Results published in ChEMBL document CHEMBL1201862, “PubChem BioAssay data set” (2004).
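A five-concentration, 48-hour dose response in 96-well plates underlies each endpoint, interpolated linearly between surrounding concentrations. The concentration for 50% growth inhibition is given as GI50.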 Calls of active or inactive are those of the source. No stated cut-off is given here; in the data, active = GI50 up to about 1.1 µM and inactive = higher. Peptide text beside a SMILES is read from it. * marks the point of attachment. X27 = Clc1c(Cl)c(Cl)c(O*)c(Cl)c1Cl; Boc = CC(C)(C)OC(=O)*; OBn = c1ccc(CO*)cc1; Bn = c1ccc(C*)cc1

What was measured:
Test in all cases: growth of human tumour cells (NCI), 48 h
[1] = test system: 786-0
[2] = test system: A498
[3] = test system: A549
[4] = test system: EKVX
[5] = test system: HOP-62
[6] = test system: HT-29
[7] = test system: Hs-578T
[8] = test system: IGROV-1
[9] = test system: M14
[10] = test system: NCI-H23
[11] = test system: OVCAR-3
[12] = test system: PC-3
[13] = test system: SF-539
[14] = test system: SK-MEL-2
[15] = test system: SNB-75
[16] = test system: TK-10
[17] = test system: UACC-62
[18] = test system: UO-31
[19] = test system: MDA-N

SMILES	GI50 [1]	GI50 [2]	GI50 [3]	GI50 [4]	GI50 [5]	GI50 [6]	GI50 [7]	GI50 [8]	GI50 [9]	GI50 [10]	GI50 [11]	GI50 [12]	GI50 [13]	GI50 [14]	GI50 [15]	GI50 [16]	GI50 [17]	GI50 [18]	GI50 [19]
O=C(N/N=C\c1cccs1)c1ccncc1	> 100 µM (inactive)	> 100 µM (inactive)	> 100 µM (inactive)	> 100 µM (inactive)	> 100 µM (inactive)	> 100 µM (inactive)	> 100 µM (inactive)	> 100 µM (inactive)	> 100 µM (inactive)	> 100 µM (inactive)	> 100 µM (inactive)	> 100 µM (inactive)	> 100 µM (inactive)	> 100 µM (inactive)	> 100 µM (inactive)	> 100 µM (inactive)	> 100 µM (inactive)	> 100 µM (inactive)	–
O=c1[nH]c(=O)n(C2CC(O)C(COP(=O)(OCC(Cl)(Cl)Cl)OCC(Cl)(Cl)Cl)O2)cc1F (stereo not drawn)	0.245 µM (active)	–	0.212 µM (active)	> 100 µM (inactive)	0.115 µM (active)	9.23 µM (inactive)	52.7 µM (inactive)	> 65.6 µM (inactive)	2 µM (inactive)	8.63 µM (inactive)	8 µM (inactive)	15.2 µM (inactive)	–	> 100 µM (inactive)	6.1 µM (inactive)	> 100 µM (inactive)	0.396 µM (active)	0.301 µM (active)	> 26 µM (inactive)
CC(C)CC(NC(=O)C(CCC(=O)OCc1ccccc1)NC(=O)OC(C)(C)C)C(=O)NC(COCc1ccccc1)C(=O)NC(Cc1ccccc1)C(=O)Oc1c(Cl)c(Cl)c(Cl)c(Cl)c1Cl (stereo not drawn) (Boc-E(OBn)LS(Bn)F-X27; configuration not given here)	35.7 µM (inactive)	–	28.6 µM (inactive)	16 µM (inactive)	–	35.6 µM (inactive)	25.1 µM (inactive)	20.7 µM (inactive)	28 µM (inactive)	16.1 µM (inactive)	–	> 100 µM (inactive)	–	34 µM (inactive)	40.2 µM (inactive)	30.3 µM (inactive)	20.7 µM (inactive)	22.2 µM (inactive)	20 µM (inactive)
ClCCN(CCCl)c1ccc(CNCCCNCc2ccc(N(CCCl)CCCl)cc2)cc1	2 µM (inactive)	7.24 µM (inactive)	3.2 µM (inactive)	2.69 µM (inactive)	2.54 µM (inactive)	1.87 µM (inactive)	3.13 µM (inactive)	1.92 µM (inactive)	4.7 µM (inactive)	3 µM (inactive)	2.69 µM (inactive)	5.92 µM (inactive)	1.46 µM (inactive)	2.17 µM (inactive)	–	2.67 µM (inactive)	1.97 µM (inactive)	2.06 µM (inactive)	–
CC1=C(/C=C/C(C)=C/C=C/C(C)=C/CO)C(C)(C)CCC1 [RETINOL]	17.2 µM (inactive)	18.3 µM (inactive)	19.1 µM (inactive)	27.1 µM (inactive)	22.1 µM (inactive)	27.2 µM (inactive)	–	29.2 µM (inactive)	16.8 µM (inactive)	21.8 µM (inactive)	14.3 µM (inactive)	38.9 µM (inactive)	14.1 µM (inactive)	20.7 µM (inactive)	0.0279 µM (active)	–	19.5 µM (inactive)	17.7 µM (inactive)	36.5 µM (inactive)
O=c1onc2c3ccccc3ncn12	> 100 µM (inactive)	> 100 µM (inactive)	> 100 µM (inactive)	> 100 µM (inactive)	> 100 µM (inactive)	> 100 µM (inactive)	> 100 µM (inactive)	> 100 µM (inactive)	> 100 µM (inactive)	> 100 µM (inactive)	> 100 µM (inactive)	> 100 µM (inactive)	> 100 µM (inactive)	> 100 µM (inactive)	> 100 µM (inactive)	> 100 µM (inactive)	> 100 µM (inactive)	> 100 µM (inactive)	–
COc1ccc(-c2c(C(C)=O)c(-c3ccccc3)n(C3OC(COC(C)=O)C(OC(C)=O)C(OC(C)=O)C3OC(C)=O)c(=S)c2C#N)cc1 (stereo not drawn)	> 100 µM (inactive)	> 100 µM (inactive)	> 100 µM (inactive)	> 100 µM (inactive)	> 100 µM (inactive)	> 100 µM (inactive)	–	> 100 µM (inactive)	> 100 µM (inactive)	> 100 µM (inactive)	> 100 µM (inactive)	–	> 100 µM (inactive)	–	80.9 µM (inactive)	> 100 µM (inactive)	> 100 µM (inactive)	–	> 100 µM (inactive)
Cc1ccc(/N=N/C(=N/NC(=O)c2cc(Cl)ccc2C(=O)c2ccccc2)c2ccc(N(CCC#N)CCC#N)cc2C)cc1	10.4 µM (inactive)	–	11.5 µM (inactive)	17.3 µM (inactive)	15.6 µM (inactive)	16.9 µM (inactive)	27.2 µM (inactive)	7.59 µM (inactive)	11.8 µM (inactive)	21.8 µM (inactive)	3.01 µM (inactive)	7.24 µM (inactive)	–	1.34 µM (inactive)	18.2 µM (inactive)	19.7 µM (inactive)	12.9 µM (inactive)	22.4 µM (inactive)	17 µM (inactive)
CCc1c2c(nc3ccc(O)cc13)-c1cc3c(c(=O)n1C2)COC(=O)[C@]3(O)CC [7-ETHYL-10-HYDROXYCAMPTOTHECIN]	< 0.001 µM (active)	–	0.0525 µM (active)	0.178 µM (active)	< 0.001 µM (active)	–	0.0791 µM (active)	–	< 0.001 µM (active)	< 0.001 µM (active)	0.0116 µM (active)	0.00746 µM (active)	< 0.001 µM (active)	0.0231 µM (active)	–	0.0933 µM (active)	< 0.001 µM (active)	–	0.00206 µM (active)
CC(NC(=O)/C(=C/c1ccccc1O)NC(=O)c1ccccc1)C(=O)O (stereo not drawn)	24.9 µM (inactive)	> 100 µM (inactive)	43.1 µM (inactive)	18.8 µM (inactive)	–	73.5 µM (inactive)	17.4 µM (inactive)	17.9 µM (inactive)	51.3 µM (inactive)	> 100 µM (inactive)	–	–	18.1 µM (inactive)	–	15.4 µM (inactive)	44.3 µM (inactive)	26 µM (inactive)	17.5 µM (inactive)	8.13 µM (inactive)
NNC(=O)CNC(=O)CSc1nnc(COc2ccc(Cl)cc2)n1-c1ccccc1	> 100 µM (inactive)	> 100 µM (inactive)	> 100 µM (inactive)	> 100 µM (inactive)	> 100 µM (inactive)	> 100 µM (inactive)	–	> 100 µM (inactive)	> 100 µM (inactive)	> 100 µM (inactive)	> 100 µM (inactive)	> 100 µM (inactive)	> 100 µM (inactive)	> 100 µM (inactive)	> 100 µM (inactive)	> 100 µM (inactive)	> 100 µM (inactive)	> 100 µM (inactive)	> 100 µM (inactive)
C[C@@H]1CC[C@@H]2[C@@H](C1)O[C@@H]([C@@H](C)OCc1ccccc1)SC2(C)C	19.2 µM (inactive)	17.3 µM (inactive)	29.9 µM (inactive)	31.8 µM (inactive)	16.4 µM (inactive)	18.8 µM (inactive)	–	23.1 µM (inactive)	19.3 µM (inactive)	21.7 µM (inactive)	–	19.5 µM (inactive)	17.2 µM (inactive)	15.8 µM (inactive)	16.2 µM (inactive)	21.7 µM (inactive)	19.3 µM (inactive)	16.4 µM (inactive)	18.4 µM (inactive)
CCN(CC)CCNC(=O)c1cc2cc(NC(=O)c3cc4cc(NC(=O)c5cc6cc([N+](=O)[O-])ccc6[nH]5)ccc4[nH]3)ccc2[nH]1	> 100 µM (inactive)	> 100 µM (inactive)	> 100 µM (inactive)	> 100 µM (inactive)	> 100 µM (inactive)	> 100 µM (inactive)	> 100 µM (inactive)	> 100 µM (inactive)	> 100 µM (inactive)	> 100 µM (inactive)	> 100 µM (inactive)	> 100 µM (inactive)	–	> 100 µM (inactive)	> 100 µM (inactive)	> 100 µM (inactive)	> 100 µM (inactive)	> 100 µM (inactive)	–
Cc1ccsc1/C=N/Nc1cnccn1	> 100 µM (inactive)	62.4 µM (inactive)	> 100 µM (inactive)	63.5 µM (inactive)	> 100 µM (inactive)	76.9 µM (inactive)	> 100 µM (inactive)	40.1 µM (inactive)	> 100 µM (inactive)	> 100 µM (inactive)	> 100 µM (inactive)	> 100 µM (inactive)	–	> 100 µM (inactive)	> 100 µM (inactive)	> 100 µM (inactive)	> 100 µM (inactive)	> 100 µM (inactive)	–
COc1ccccc1C1C(C(=O)Nc2ccccc2)=C(C)NC(C)=C1C(=O)Nc1ccccc1	> 100 µM (inactive)	31.7 µM (inactive)	–	91.4 µM (inactive)	83.8 µM (inactive)	83.4 µM (inactive)	–	34.4 µM (inactive)	45 µM (inactive)	> 100 µM (inactive)	84.1 µM (inactive)	–	36.1 µM (inactive)	32 µM (inactive)	> 100 µM (inactive)	89.5 µM (inactive)	40.6 µM (inactive)	56.5 µM (inactive)	–
C/C(=C\C(C)COCc1ccccc1)[C@H](COCc1ccccc1)OCc1ccccc1 (stereo partly drawn)	> 100 µM (inactive)	> 100 µM (inactive)	> 100 µM (inactive)	> 100 µM (inactive)	> 100 µM (inactive)	> 100 µM (inactive)	–	> 100 µM (inactive)	> 100 µM (inactive)	48 µM (inactive)	> 100 µM (inactive)	–	> 100 µM (inactive)	> 100 µM (inactive)	80.2 µM (inactive)	> 100 µM (inactive)	> 100 µM (inactive)	83.9 µM (inactive)	–
